Test results as given in patent US12559529B2, “NPY2 receptor agonists” (Boehringer Ingelheim International GmbH, priority 2019, dated 2026).
*1 amine or outer side, *2 acyl side, *3 side chain or, on linkers, in order; H or OH if unused. Where a SMILES comes first, the peptide text is derived from it. Side-chain parts run from the residue outwards. The star is where a group is joined. C18 diacid = O=C(O)CCCCCCCCCCCCCCCCC(=O)*; γGlu = O=C(O)[C@H](CCC(=O)[*:2])N[*:1]; Isovaleryl = CC(C)CC(=O)*; AEEA = NCCOCCOCC(=O)O

Each molecule was assayed against T1, Human Neuropeptide Y2 Receptor (Homo sapiens, UniProt P49146) (assay: Radioligand binding competition assay (RLB)). Details: Table 3; human 125I-PYY (1-36) 0.02 nM, Y2 receptor membranes; read-out: Ki.
T1 construct: purchased CHEMICON HTS066M
T1 sequence (P49146 1-381): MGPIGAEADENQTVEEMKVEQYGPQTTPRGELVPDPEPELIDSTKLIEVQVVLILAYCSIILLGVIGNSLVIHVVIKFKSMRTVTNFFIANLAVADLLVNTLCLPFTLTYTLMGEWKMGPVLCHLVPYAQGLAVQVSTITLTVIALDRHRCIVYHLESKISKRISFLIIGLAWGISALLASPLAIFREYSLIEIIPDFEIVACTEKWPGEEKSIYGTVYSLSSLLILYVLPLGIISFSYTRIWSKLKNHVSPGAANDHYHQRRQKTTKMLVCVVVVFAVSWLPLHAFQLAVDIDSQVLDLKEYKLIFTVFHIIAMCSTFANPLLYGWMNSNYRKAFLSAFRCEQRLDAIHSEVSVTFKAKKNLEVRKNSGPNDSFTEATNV
Outline: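 IC50 values come from nonlinear regression of sigmoidal dose-response curves of filter-bound radioactivity. Peptides competed with radioligand at human Y2 receptor membranes (0.5 μg protein/well) for 2 h at room temperature in pH 7.4 HEPES buffer containing Mg2+, Ca2+ and 0.2% ovalbumin.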
With `CC(C)CC(=O)N[C@@H](C)C(=O)N1CCC[C@H]1C(=O)N[C@@H](CCC(=O)O)C(=O)N[C@@H](CCCCNC(=O)COCCOCCNC(=O)COCCOCCNC(=O)CC[C@H](NC(=O)CCCCCCCCCCCCCCCCC(=O)O)C(=O)O)C(=O)N1CCC[C@H]1C(=O)N[C@@H](CCC(=O)O)C(=O)N[C@@H](CCC(=O)O)C(=O)N[C@@H](C)C(=O)N[C@@H](C)C(=O)N[C@@H](CO)C(=O)N[C@@H](C)C(=O)N[C@@H](CCC(=O)O)C(=O)N[C@@H](CCC(=O)O)C(=O)N[C@@H](CC(C)C)C(=O)N[C@@H](CCC(N)=O)C(=O)N[C@@H](CCCNC(=N)N)C(=O)N[C@@H](Cc1ccc(O)cc1)C(=O)N[C@@H](Cc1ccc(O)cc1)C(=O)N[C@H](C(=O)N[C@@H](CO)C(=O)N[C@@H](CC(C)C)C(=O)N[C@@H](CCCNC(=N)N)C(=O)N[C@@H](Cc1c[nH]cn1)C(=O)N[C@@H](Cc1ccc(O)cc1)C(=O)N[C@@H](Cc1ccc(O)cc1)C(=O)N[C@@H](CC(N)=O)C(=O)N[C@@H](Cc1c[nH]c2ccccc12)C(=O)N[C@@H](CC(C)C)C(=O)N[C@H](C(=O)N[C@@H](CCCNC(=N)N)C(=O)N[C@@H](CCC(N)=O)C(=O)N[C@@H](CCCNC(=N)N)C(=O)N[C@@H](Cc1ccc(O)cc1)C(N)=O)[C@@H](C)O)C(C)C` [Compound 220, N{alpha-4}-(3-methylbutanoyl)-N{epsilon-7}-[2-(2-{2-[2-(2-{2-[(4S)-4-carboxy-4-(17-carboxyheptadecanamido)butanamido]ethoxy}ethoxy)acetamido]ethoxy}ethoxy)acetamido]-[4A,7K,9E,11A,14A,18Q,22V,28Y,30W,31L]hPYY (4-36)] the Ki was 2.99 nM. `CC(C)CC(=O)N[C@@H](C)C(=O)N1CCC[C@H]1C(=O)N[C@@H](CCC(=O)O)C(=O)N[C@@H](CCCCNC(=O)COCCOCCNC(=O)COCCOCCNC(=O)CC[C@H](NC(=O)CCCCCCCCCCCCCCCCC(=O)O)C(=O)O)C(=O)N1CCC[C@H]1C(=O)N[C@@H](CCC(=O)O)C(=O)N[C@@H](CCC(=O)O)C(=O)N[C@@H](C)C(=O)N[C@@H](C)C(=O)N[C@@H](CCC(=O)O)C(=O)N1CCC[C@H]1C(=O)N[C@@H](CCC(=O)O)C(=O)N[C@@H](CCC(=O)O)C(=O)N[C@@H](CC(C)C)C(=O)N[C@@H](CCC(N)=O)C(=O)N[C@@H](CCCNC(=N)N)C(=O)N[C@@H](Cc1ccc(O)cc1)C(=O)N[C@@H](Cc1ccc(O)cc1)C(=O)N[C@H](C(=O)N[C@@H](CO)C(=O)N[C@@H](CC(C)C)C(=O)N[C@@H](CCCNC(=N)N)C(=O)N[C@@H](Cc1c[nH]cn1)C(=O)N[C@@H](Cc1ccc(O)cc1)C(=O)N[C@@H](Cc1ccc(O)cc1)C(=O)N[C@@H](CC(N)=O)C(=O)N[C@@H](Cc1c[nH]c2ccccc12)C(=O)N[C@@H](CC(C)C)C(=O)N[C@H](C(=O)N[C@@H](CCCNC(=N)N)C(=O)N[C@@H](CCC(N)=O)C(=O)N[C@@H](CCCNC(=N)N)C(=O)N[C@@H](Cc1ccc(O)cc1)C(N)=O)[C@@H](C)O)C(C)C` [Compound 223, N{alpha-4}-(3-methylbutanoyl)-N{epsilon-7}-[2-(2-{2-[2-(2-{2-[(4S)-4-carboxy-4-(17-carboxyheptadecanamido)butanamido]ethoxy}ethoxy)acetamido]ethoxy}ethoxy)acetamido]-[4A,7K,9E,11A,13E,18Q,22V,28Y,30W,31L]hPYY (4-36)] showed a Ki of 4.77 nM. Work on `CC(C)CC(=O)N[C@@H](C)C(=O)N1CCC[C@H]1C(=O)N[C@@H](CCC(=O)O)C(=O)N[C@@H](CCCCNC(=O)COCCOCCNC(=O)COCCOCCNC(=O)CC[C@H](NC(=O)CCCCCCCCCCCCCCCCC(=O)O)C(=O)O)C(=O)N1CCC[C@H]1C(=O)NCC(=O)N[C@@H](CCC(=O)O)C(=O)N[C@@H](CCC(=O)O)C(=O)N[C@@H](C)C(=O)N[C@@H](CO)C(=O)N1CCC[C@H]1C(=O)N[C@@H](CCC(=O)O)C(=O)N[C@@H](CCC(=O)O)C(=O)N[C@@H](CC(C)C)C(=O)N[C@@H](CCC(=O)O)C(=O)N[C@@H](CCC(N)=O)C(=O)N[C@@H](Cc1ccc(O)cc1)C(=O)N[C@@H](Cc1ccc(O)cc1)C(=O)N[C@H](C(=O)N[C@@H](CO)C(=O)N[C@@H](CC(C)C)C(=O)N[C@@H](CCCNC(=N)N)C(=O)N[C@@H](Cc1c[nH]cn1)C(=O)N[C@@H](Cc1ccc(O)cc1)C(=O)N[C@@H](Cc1ccc(O)cc1)C(=O)N[C@@H](CC(N)=O)C(=O)N[C@@H](Cc1c[nH]c2ccccc12)C(=O)N[C@@H](CC(C)C)C(=O)N[C@H](C(=O)N[C@@H](CCCNC(=N)N)C(=O)N[C@@H](CCC(N)=O)C(=O)N[C@@H](CCCNC(=N)N)C(=O)N[C@@H](Cc1ccc(O)cc1)C(N)=O)[C@@H](C)O)C(C)C` [Compound 224, N{alpha-4}-(3-methylbutanoyl)-N{epsilon-7}-[2-(2-{2-[2-(2-{2-[(4S)-4-carboxy-4-(17-carboxyheptadecanamido)butanamido]ethoxy}ethoxy)acetamido]ethoxy}ethoxy)acetamido]-[4A,7K,11E,18E,19Q,22V,28Y,30W,31L]hPYY (4-36)] (Isovaleryl-APEK([AEEA-AEEA-γGlu-C18 diacid])PGEEASPEELEQYYVSLRHYYNWLTRQRY-NH2) yielded a Ki of 4.64 nM. `CC(C)CC(=O)N[C@@H](C)C(=O)N1CCC[C@H]1C(=O)N[C@@H](CCC(=O)O)C(=O)N[C@@H](CCCCNC(=O)COCCOCCNC(=O)COCCOCCNC(=O)CC[C@H](NC(=O)CCCCCCCCCCCCCCCCC(=O)O)C(=O)O)C(=O)N1CCC[C@H]1C(=O)N[C@@H](CCC(=O)O)C(=O)N[C@@H](CCC(=O)O)C(=O)N[C@@H](C)C(=O)N[C@@H](C)C(=O)N[C@@H](CO)C(=O)N1CCC[C@H]1C(=O)N[C@@H](CCC(=O)O)C(=O)N[C@@H](CCC(=O)O)C(=O)N[C@H](C(=O)N[C@@H](CCC(N)=O)C(=O)N[C@@H](CCCNC(=N)N)C(=O)N[C@@H](Cc1ccc(O)cc1)C(=O)N[C@@H](Cc1ccc(O)cc1)C(=O)N[C@H](C(=O)N[C@@H](CO)C(=O)N[C@@H](CC(C)C)C(=O)N[C@@H](CCCNC(=N)N)C(=O)N[C@@H](Cc1c[nH]cn1)C(=O)N[C@@H](Cc1ccc(O)cc1)C(=O)N[C@@H](Cc1ccc(O)cc1)C(=O)N[C@@H](CC(N)=O)C(=O)N[C@@H](Cc1c[nH]c2ccccc12)C(=O)N[C@@H](CC(C)C)C(=O)N[C@H](C(=O)N[C@@H](CCCNC(=N)N)C(=O)N[C@@H](CCC(N)=O)C(=O)N[C@@H](CCCNC(=N)N)C(=O)N[C@@H](Cc1ccc(O)cc1)C(N)=O)[C@@H](C)O)C(C)C)[C@@H](C)O` [Compound 226, N{alpha-4}-(3-methylbutanoyl)-N{epsilon-7}-[2-(2-{2-[2-(2-{2-[(4S)-4-carboxy-4-(17-carboxyheptadecanamido)butanamido]ethoxy}ethoxy)acetamido]ethoxy}ethoxy)acetamido]-[4A,7K,9E,11A,17T,18Q,22V,28Y,30W,31L]hPYY (4-36)] was tested, and the Ki was 1.21 nM.
